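Each compound was tested at five concentrations against cells in 96-well plates for 48 hours. GI50 is the concentration that inhibits growth by half.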 Activity calls are given as the source filed them. No stated cut-off is given here; in the data, active = GI50 up to about 1.1 µM and inactive = higher.
Experiments:
Assay in all cases: NCI anticancer screen, dose series, 48 h
HCT-15 = tested on: HCT-15
HT-29 = tested on: HT-29
NCI-H226 = tested on: NCI-H226
NCI-H23 = tested on: NCI-H23
PC-3 = tested on: PC-3
HOP-62 = tested on: HOP-62
786-0 = tested on: 786-0
A549 = tested on: A549
U-251 = tested on: U-251
LOX IMVI = tested on: LOX IMVI
EKVX = tested on: EKVX
OVCAR-8 = tested on: OVCAR-8
UACC-62 = tested on: UACC-62
UO-31 = tested on: UO-31
MDA-MB-231 = tested on: MDA-MB-231
SF-268 = tested on: SF-268
SNB-75 = tested on: SNB-75
ACHN = tested on: ACHN
MDA-MB-435 = tested on: MDA-MB-435
KM12 = tested on: KM12
HCT-116 = tested on: HCT-116
MCF7 = tested on: MCF7
UACC-257 = tested on: UACC-257
NCI/ADR-RES = tested on: NCI/ADR-RES
MDA-N = tested on: MDA-N
DU-145 = tested on: DU-145
RXF 393 = tested on: RXF 393
BT-549 = tested on: BT-549
SK-MEL-2 = tested on: SK-MEL-2
CCRF-CEM = tested on: CCRF-CEM
TK-10 = tested on: TK-10
SK-MEL-5 = tested on: SK-MEL-5
SK-MEL-28 = tested on: SK-MEL-28
OVCAR-4 = tested on: OVCAR-4
SF-295 = tested on: SF-295
MOLT-4 = tested on: MOLT-4
NCI-H522 = tested on: NCI-H522
HL-60 = tested on: HL-60
SK-OV-3 = tested on: SK-OV-3
NCI-H460 = tested on: NCI-H460
HCC 2998 = tested on: HCC 2998
SF-539 = tested on: SF-539
OVCAR-3 = tested on: OVCAR-3
Hs-578T = tested on: Hs-578T
SNB-19 = tested on: SNB-19
M14 = tested on: M14
IGROV-1 = tested on: IGROV-1
HOP-92 = tested on: HOP-92
SW-620 = tested on: SW-620
COLO 205 = tested on: COLO 205
SN12C = tested on: SN12C
OVCAR-5 = tested on: OVCAR-5
CAKI-1 = tested on: CAKI-1
K562 = tested on: K562
Malme-3M = tested on: Malme-3M
RPMI-8226 = tested on: RPMI-8226
SR = tested on: SR
A498 = tested on: A498

Measured: GI50

COC(=O)C(=O)C(C(=O)C(=O)Nc1ccc(C)cc1C)c1nc2ccc(Cl)cc2nc1O (centres undefined)
> 100 µM: HCT-15
inactive: HT-29 > 100 µM | NCI-H226 > 100 µM | NCI-H23 > 100 µM | PC-3 > 100 µM | HOP-62 > 100 µM | 786-0 > 100 µM | A549 > 100 µM | U-251 > 100 µM | LOX IMVI > 100 µM | EKVX 34.6 µM | OVCAR-8 > 100 µM | UACC-62 > 100 µM | UO-31 47.6 µM | MDA-MB-231 > 100 µM | SF-268 > 100 µM | SNB-75 > 100 µM | ACHN > 100 µM | MDA-MB-435 > 100 µM | KM12 > 100 µM | HCT-116 > 100 µM | MCF7 > 100 µM | UACC-257 > 100 µM | NCI/ADR-RES > 100 µM | MDA-N > 100 µM | DU-145 > 100 µM | RXF 393 > 100 µM | BT-549 > 100 µM | SK-MEL-2 > 100 µM | CCRF-CEM > 100 µM | TK-10 > 100 µM | SK-MEL-5 > 100 µM | SK-MEL-28 > 100 µM | OVCAR-4 > 100 µM | SF-295 > 100 µM | MOLT-4 > 100 µM | NCI-H522 > 100 µM | HL-60 78 µM | SK-OV-3 > 100 µM | NCI-H460 > 100 µM | HCC 2998 > 100 µM | SF-539 > 100 µM | OVCAR-3 > 100 µM | Hs-578T > 100 µM | SNB-19 > 100 µM | M14 > 100 µM | IGROV-1 > 100 µM | HOP-92 > 100 µM | SW-620 > 100 µM | COLO 205 > 100 µM | SN12C > 100 µM | OVCAR-5 > 100 µM | CAKI-1 > 100 µM

CCCCC/C(=N\c1[nH]cnc1C(N)=O)OCC
> 100 µM: HCT-15
inactive: HT-29 > 100 µM | NCI-H226 > 100 µM | NCI-H23 > 100 µM | PC-3 > 100 µM | HOP-62 > 100 µM | 786-0 > 100 µM | A549 > 100 µM | U-251 > 100 µM | LOX IMVI > 100 µM | EKVX 32.3 µM | OVCAR-8 > 100 µM | UACC-62 > 100 µM | UO-31 55.5 µM | MDA-MB-231 > 100 µM | SF-268 > 100 µM | ACHN > 100 µM | MDA-MB-435 > 100 µM | KM12 > 100 µM | K562 > 100 µM | Malme-3M > 100 µM | HCT-116 > 100 µM | MCF7 > 100 µM | UACC-257 > 100 µM | NCI/ADR-RES > 100 µM | MDA-N > 100 µM | DU-145 > 100 µM | RPMI-8226 > 100 µM | RXF 393 > 100 µM | BT-549 > 100 µM | SK-MEL-2 > 100 µM | CCRF-CEM > 100 µM | TK-10 > 100 µM | SK-MEL-5 > 100 µM | SK-MEL-28 > 100 µM | OVCAR-4 > 100 µM | SF-295 > 100 µM | MOLT-4 > 100 µM | NCI-H522 75 µM | HL-60 > 100 µM | SK-OV-3 > 100 µM | NCI-H460 > 100 µM | HCC 2998 > 100 µM | SF-539 > 100 µM | OVCAR-3 > 100 µM | Hs-578T > 100 µM | SNB-19 > 100 µM | M14 94.2 µM | IGROV-1 > 100 µM | SR > 100 µM | SW-620 > 100 µM | COLO 205 > 100 µM | SN12C > 100 µM | OVCAR-5 > 100 µM | CAKI-1 > 100 µM | A498 > 100 µM

— ChEMBL document CHEMBL1201862, “PubChem BioAssay data set” (2004)
